Results published in patent US4731451A, “N-((2-oxo-3(2H)benzothiazolyl)methyl)-2-chloroacetanilides” (Monsanto Company, priority 1980, dated 1988).

Key:
Format in all cases: in vivo
Lambsquarters = assay: Pre-emergent herbicidal activity (Table II); conditions: 2-3 weeks; further: ranges in brackets are in %
Outline: (§1)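 Treated soil cover layer (known amount of active ingredient, solvent or wettable powder) applied over seeds/propagules in pans. Greenhouse bench, watered from below; injury rated at ~2-3 weeks.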

Velvetleaf = assay: Pre-emergent herbicidal activity (Table II); conditions: 2-3 weeks; further: ranges in brackets are in %
Outline: as §1

Cocklebur = assay: Pre-emergent herbicidal activity (Table II); conditions: 2-3 weeks; further: ranges in brackets are in %
Outline: as §1

Smartweed = assay: Pre-emergent herbicidal activity (Table II); conditions: 2-3 weeks; further: ranges in brackets are in %
Outline: as §1

Rice = assay: Percent inhibition in transplanted rice (Table VI)
Description: (§2) In Table VI, data is presented showing the effect of said compound on the major Asian rice weeds Echinochloa crusgalli (EC), Monochoria vaginalis (MV), Cyperus serotinus (CS), Eleocharis kuroguwai (EK) and Sagittaria trifolia (ST) in transplanted rice at rates within the range of 0.25-2.0 lb/A (0.28-2.24 kg/ha); observations were made 18 days after treatment.

Cyperus serotinus = assay: Percent inhibition of rice weeds in transplanted rice (Table VI); conditions: 432 h, 18 days after treatment
Description: as §2

Eleocharis kuroguwai = assay: as above; conditions: 432 h, 18 days after treatment
Description: as §2

Echinochloa crusgalli = assay: as above; conditions: Echinochloa crus-galli, 432 h, 18 days after treatment
Description: as §2

Sagittaria trifolia = assay: as above; conditions: 432 h, 18 days after treatment
Description: as §2

Monochoria vaginalis = assay: as above; conditions: Pontederia vaginalis, 432 h, 18 days after treatment
Description: as §2

CC1=C(N(Cn2c(=O)sc3ccccc32)C(=O)CCl)C(C)CCC1 (stereo not drawn) [Example 1, N-(2,6-dimethyl-1-cyclohexen-1-yl)-N-[(2-oxo-3(2H)-benzothiazolyl)methyl]-2-chloroacetamide]
Herbicidal rating (Lambsquarters; 5.6 kg/ha): 1 (25-49) | Herbicidal rating (Lambsquarters; 11.0 kg/ha): 0 (0-24) | Herbicidal rating (Velvetleaf; 5.6 kg/ha): 0 (0-24) | Herbicidal rating (Velvetleaf; 11.0 kg/ha): 0 (0-24) | Herbicidal rating (Cocklebur; 5.6 kg/ha): 1 (25-49) | Herbicidal rating (Cocklebur; 11.0 kg/ha): 0 (0-24) | Herbicidal rating (Smartweed; 5.6 kg/ha): 1 (25-49) | Herbicidal rating (Smartweed; 11.0 kg/ha): 3 (75-100) | inhibition at 280 g/ha (Rice; Oryza sativa, 432 h, transplanted rice, 0.28 kg/ha, 18 days after treatment): 0% | inhibition at 560 g/ha (Rice; Oryza sativa, 432 h, transplanted rice, 0.56 kg/ha, 18 days after treatment): 0% | inhibition at 1120 g/ha (Rice; Oryza sativa, 432 h, transplanted rice, 1.12 kg/ha, 18 days after treatment): 0% | inhibition at 2240 g/ha (Rice; Oryza sativa, 432 h, transplanted rice, 2.24 kg/ha, 18 days after treatment): 10% | rice injury (rice safety) (Rice; at 2.24 kg/ha or more): ≤ 15% | inhibition at 280 g/ha (Cyperus serotinus; 0.28 kg/ha): 80% | inhibition at 560 g/ha (Cyperus serotinus; 0.56 kg/ha): 90% | inhibition at 1120 g/ha (Cyperus serotinus; 1.12 kg/ha): 100% | inhibition at 2240 g/ha (Cyperus serotinus; 2.24 kg/ha): 100% | inhibition at 280 g/ha (Eleocharis kuroguwai; 0.28 kg/ha): 100% | inhibition at 560 g/ha (Eleocharis kuroguwai; 0.56 kg/ha): 100% | inhibition at 1120 g/ha (Eleocharis kuroguwai; 1.12 kg/ha): 100% | inhibition at 2240 g/ha (Eleocharis kuroguwai; 2.24 kg/ha): 100% | inhibition at 280 g/ha (Echinochloa crusgalli; 0.28 kg/ha): 100% | inhibition at 560 g/ha (Echinochloa crusgalli; 0.56 kg/ha): 100% | inhibition at 1120 g/ha (Echinochloa crusgalli; 1.12 kg/ha): 100% | inhibition at 2240 g/ha (Echinochloa crusgalli; 2.24 kg/ha): 100% | inhibition at 280 g/ha (Sagittaria trifolia; 0.28 kg/ha): 0% | inhibition at 560 g/ha (Sagittaria trifolia; 0.56 kg/ha): 5% | inhibition at 1120 g/ha (Sagittaria trifolia; 1.12 kg/ha): 5% | inhibition at 2240 g/ha (Sagittaria trifolia; 2.24 kg/ha): 5% | inhibition at 280 g/ha (Monochoria vaginalis; 0.28 kg/ha): 100% | inhibition at 560 g/ha (Monochoria vaginalis; 0.56 kg/ha): 100% | inhibition at 1120 g/ha (Monochoria vaginalis; 1.12 kg/ha): 100% | inhibition at 2240 g/ha (Monochoria vaginalis; 2.24 kg/ha): 100%
